# Experiments:
# [1] = compound: C=CCn1c(=O)c2cnc(Nc3ccc(N4CCN(C)CC4)cc3)nc2n1-c1cccc(C(C)(C)O)n1 [AZD1775]
# [2] = compound: COc1cc2c(Oc3ccc4[nH]c(C)cc4c3F)ncnc2cc1OCCCN1CCCC1 [Cediranib/AZD2171]
# [3] = compound: CN1CCN(CCOc2cc(OC3CCOCC3)c3c(Nc4c(Cl)ccc5c4OCO5)ncnc3c2)CC1 [Saracatinib/AZD0530]
# [4] = compound: CCCCOc1c(C(=O)c2c(F)cc(C)cc2F)c[nH]c2nncc1-2
# [5] = compound: Cc1nc(NC(=O)N2CCC[C@H]2C(N)=O)sc1-c1ccnc(C(C)(C)C(F)(F)F)c1 [Alpelisib/BYL719]
# [6] = compound: CC(=O)Nc1cccc(-n2c(=O)n(C3CC3)c(=O)c3c(Nc4ccc(I)cc4F)n(C)c(=O)c(C)c32)c1
# [7] = compound: COc1ccc2c(c1)[C@]1(C[C@H]1c1ccc3c(/C=C/c4ccc(CN5C[C@@H](C)O[C@@H](C)C5)cc4)n[nH]c3c1)C(=O)N2
# [8] = compound: CC(C)Nc1cc(-c2c[nH]c(C(=O)N[C@H](CO)c3cccc(Cl)c3)c2)c(Cl)cn1 [BVD523]
# [9] = compound: CO[C@@H](C)Cn1c(=O)n(C)c2cnc3ccc(-c4cncc(C(C)(C)O)c4)cc3c21
# [10] = compound: T1, CN(C)C/C=C/C(=O)Nc1ccc(C(=O)Nc2cccc(Nc3ncc(Cl)c(-c4c[nH]c5ccccc45)n3)c2)cc1 [THZ1]
# [11] = compound: T2, CN(C)C/C=C/C(=O)Nc1ccc(C(=O)N2CCC[C@@H](Nc3ncc(Cl)c(-c4c[nH]c5ccccc45)n3)C2)cc1 [THZ531]
# [12] = compound: CNCc1ccc(-c2[nH]c3cc(F)cc4c3c2CCNC4=O)cc1 [Rucaparib]
# [13] = compound: CN(C)C(=O)c1cc2cnc(Nc3ccc(N4CCNCC4)cn3)nc2n1C1CCCC1 [LEE011/Ribociclib]; experiment: increase in dead-cell fraction, 72 h; higher = more death;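 also: breast cancer cell lines in 384-well plates, stained with Hoechst plus LIVE/DEAD far red dye and imaged, cells above an LDR intensity threshold counted dead, Hoechst-negative corpses included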
# [14] = compound: CC(=O)c1c(C)c2cnc(Nc3ccc(N4CCN(CCOCCOCCOCCNC(=O)COc5cccc6c5C(=O)N(C5CCC(=O)NC5=O)C6=O)CC4)cn3)nc2n(C2CCCC2)c1=O [BSJ-03-123]; experiment: as above
# [15] = compound: CCc1cnn2c(NCc3ccc[n+]([O-])c3)cc(N3CCCC[C@H]3CCO)nc12; experiment: as above
# [16] = compound: CC(=O)c1c(C)c2cnc(Nc3ccc(N4CCNCC4)cn3)nc2n(C2CCCC2)c1=O; experiment: as above
# [17] = compound: C=CC(=O)Nc1ccc(C(=O)Nc2[nH]nc3c2CN(C(=O)N[C@H](CN(C)C)c2ccccc2)C3(C)C)cc1 [YKL-5-124]; experiment: as above
# [18] = compound: T1, THZ1; experiment: as above
# [19] = compound: T2, THZ531; experiment: as above
# [20] = compound: CCOc1cc2ncc(C#N)c(Nc3ccc(OCc4ccccn4)c(Cl)c3)c2cc1NC(=O)/C=C/CN(C)C [Neratinib/HKI272]; experiment: as above
# 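For GR50, 72 h in this document: breast cancer and non-malignant breast epithelial cell lines, Deep Dye Drop or Dye Drop imaging, nine half-log doses, GR normalized to time-zero plates and DMSO-only controls.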
cell line,measurement,setting,value
PDX1328,"GR50, 72 h",[1],0.00554 µM
same,"GR50, 72 h",[2],4.04 µM
same,"GR50, 72 h",[3],0.987 µM
same,"GR50, 72 h",[4],> 10 µM
same,"GR50, 72 h",[5],1.57 µM
same,"GR50, 72 h",[6],> 1 µM
same,"GR50, 72 h",[7],0.00595 µM
same,"GR50, 72 h",[8],> 10 µM
same,"GR50, 72 h",[9],0.00195 µM
same,"GR50, 72 h",[10],0.0106 µM
same,"GR50, 72 h",[11],0.0399 µM
same,"GR50, 72 h",[12],> 10 µM
same,increase in dead-cell fraction,[13]; 0.001 µM,-0.0001
same,increase in dead-cell fraction,[13]; 0.003162 µM,-0.0049
same,increase in dead-cell fraction,[13]; 0.01 µM,-0.0091
same,increase in dead-cell fraction,[13]; 0.03162 µM,-0.0001
same,increase in dead-cell fraction,[13]; 0.1 µM,0.0131
same,increase in dead-cell fraction,[13]; 0.3162 µM,0.0012
same,increase in dead-cell fraction,[13]; 1 µM,-0.0011
same,increase in dead-cell fraction,[13]; 3.162 µM,0.005
same,increase in dead-cell fraction,[13]; 10 µM,0.0126
same,increase in dead-cell fraction,[14]; 0.001 µM,-0.0042
same,increase in dead-cell fraction,[14]; 0.003162 µM,-0.0045
same,increase in dead-cell fraction,[14]; 0.01 µM,-0.0076
same,increase in dead-cell fraction,[14]; 0.03162 µM,-0.0013
same,increase in dead-cell fraction,[14]; 0.1 µM,-0.006
same,increase in dead-cell fraction,[14]; 0.3162 µM,-0.0065
same,increase in dead-cell fraction,[14]; 1 µM,-0.0104
same,increase in dead-cell fraction,[14]; 3.162 µM,-0.0015
same,increase in dead-cell fraction,[14]; 10 µM,0.0283
same,increase in dead-cell fraction,[15]; 0.0001 µM,-0.0005
same,increase in dead-cell fraction,[15]; 0.0003162 µM,0.0028
same,increase in dead-cell fraction,[15]; 0.001 µM,-0.0033
same,increase in dead-cell fraction,[15]; 0.003162 µM,-0.0053
same,increase in dead-cell fraction,[15]; 0.01 µM,-0.0021
same,increase in dead-cell fraction,[15]; 0.03162 µM,0.113
same,increase in dead-cell fraction,[15]; 0.1 µM,0.187
same,increase in dead-cell fraction,[15]; 0.3162 µM,0.19
same,increase in dead-cell fraction,[15]; 1 µM,0.213
same,increase in dead-cell fraction,[16]; 0.0003162 µM,-0.0028
same,increase in dead-cell fraction,[16]; 0.001 µM,0.0004
same,increase in dead-cell fraction,[16]; 0.003162 µM,-0.0023
same,increase in dead-cell fraction,[16]; 0.01 µM,0.0019
same,increase in dead-cell fraction,[16]; 0.03162 µM,-0.005
same,increase in dead-cell fraction,[16]; 0.1 µM,0.0014
same,increase in dead-cell fraction,[16]; 0.3162 µM,-0.0028
same,increase in dead-cell fraction,[16]; 1 µM,0.0026
same,increase in dead-cell fraction,[16]; 3.162 µM,0.0055
same,increase in dead-cell fraction,[17]; 0.001 µM,0.0057
same,increase in dead-cell fraction,[17]; 0.003162 µM,0.0011
same,increase in dead-cell fraction,[17]; 0.01 µM,0.0128
same,increase in dead-cell fraction,[17]; 0.03162 µM,0.0082
same,increase in dead-cell fraction,[17]; 0.1 µM,0.0045
same,increase in dead-cell fraction,[17]; 0.3162 µM,0.0085
same,increase in dead-cell fraction,[17]; 1 µM,0.0121
same,increase in dead-cell fraction,[17]; 3.162 µM,0.0229
same,increase in dead-cell fraction,[17]; 10 µM,0.0663
same,increase in dead-cell fraction,[18]; 0.0001 µM,-0.0047
same,increase in dead-cell fraction,[18]; 0.0003162 µM,-0.0031
same,increase in dead-cell fraction,[18]; 0.001 µM,-0.0014
same,increase in dead-cell fraction,[18]; 0.003162 µM,-0.0053
same,increase in dead-cell fraction,[18]; 0.01 µM,0.0031
same,increase in dead-cell fraction,[18]; 0.03162 µM,0.0436
same,increase in dead-cell fraction,[18]; 0.1 µM,0.123
same,increase in dead-cell fraction,[18]; 0.3162 µM,0.225
same,increase in dead-cell fraction,[18]; 1 µM,0.432
same,increase in dead-cell fraction,[19]; 0.0001 µM,-0.0004
same,increase in dead-cell fraction,[19]; 0.0003162 µM,-0.0097
same,increase in dead-cell fraction,[19]; 0.001 µM,0.0015
same,increase in dead-cell fraction,[19]; 0.003162 µM,0
same,increase in dead-cell fraction,[19]; 0.01 µM,0.003
same,increase in dead-cell fraction,[19]; 0.03162 µM,-0.0033
same,increase in dead-cell fraction,[19]; 0.1 µM,0.0477
same,increase in dead-cell fraction,[19]; 0.3162 µM,0.199
same,increase in dead-cell fraction,[19]; 1 µM,0.186
same,increase in dead-cell fraction,[20]; 0.0003162 µM,0.0026
same,increase in dead-cell fraction,[20]; 0.001 µM,0.0005
same,increase in dead-cell fraction,[20]; 0.003162 µM,0.002
same,increase in dead-cell fraction,[20]; 0.01 µM,-0.0007
same,increase in dead-cell fraction,[20]; 0.03162 µM,0.0044
same,increase in dead-cell fraction,[20]; 0.1 µM,0.0093
same,increase in dead-cell fraction,[20]; 0.3162 µM,0.0044
same,increase in dead-cell fraction,[20]; 1 µM,0.0158
same,increase in dead-cell fraction,[20]; 3.162 µM,0.0733
